Where two headings read alike, the source gives them in different places.
Columns and labels:
Rv3406 [1] = target: T1, Rv3406 (Mycobacterium tuberculosis, UniProt P9WKZ1); settings: substrate; ref Neres et al., ACS Chem Biol 10, 705-714 (2015); cited from earlier work
Mtb [2] = assay type: cell-based, Mycobacterium tuberculosis
[3] = system: non-replicating Mtb H37Rv strain; experiment: Viability of non-replicating Mtb (PBS starvation); assay type: cell-based, Mycobacterium tuberculosis; settings: starvation in PBS
[4] = Tolerability at ascending intraperitoneal doses; assay type: in vivo, CD-1 mice
Method: Groups of three mice received Bio-AMS (50, 100, 250, or 500 mg/kg) via intraperitoneal injection at 4 ml/kg. They were observed continuously for the first half-hour after injection and then at 24 hours after injection.
Table S5. Tolerability of Bio-AMS at ascending intraperitoneal doses in CD-1 mice.a Bio-AMS 50mg/kg (IP) 4 ml/kg
Mouse # Weight ½ h Observation 24h Observation
Bio-AMS 100mg/kg (IP) 4 ml/kg
Bio-AMS 250mg/kg (IP) 4 ml/kg
Bio-AMS 500mg/kg (IP) 4 ml/kg […]
would be tolerated in mice (with plasma concentrations above the MIC for a minimum of 40-50% of the dosing interval). For this, we conducted a dose escalation tolerab ility study in which groups of three mice received ascending IP doses of Bio-AMS. Only the lowest dose of 50 mg/kg was tolerated up to 24 h post injection. Animal weights remained unchanged during the 24 h period post-injection at all doses. Assuming linear pharmacokinetics, a 50 mg/kg dose would deliver plasma concentrations above the MIC for a very small fraction of the dosing

Mtb H37Rv strain = experiment: Combination of Bio-AMS with rifampicin, ethambutol, isoniazid in liquid culture; assay type: cell-based, Mycobacterium tuberculosis; settings: for bactericidal activity when used individually: Bio-AMS at 1 µM, rifampicin at 6.5 nM, ethambutol at 12.5 µM; for change of MIC by sublethal dose of Bio-AMS: Bio-AMS 1 µM, 3 days pre-exposure; for Mtb inoculum killed: after 20 days of treatment
Mtb [5] = experiment: Acid-fast (Kinyoun) staining after Bio-AMS exposure; assay type: cell-based, Mycobacterium tuberculosis; settings: lethal dose (5 µM); after 10 days of exposure
Rv3406 [6] = target: T1, Rv3406
[7] = in vivo
in vivo [8] = settings: CD-1, mouse
Mtb [9] = experiment: MIC measurements (carbon sources, biotin in medium)
Mtb in mouse macrophages = experiment: Intracellular Mtb in mouse bone marrow-derived macrophages; settings: treated 24 hours after infection
[10] = 7 days
in vivo [11] = settings: female, NZW, rabbit, lung lesions and plasma, oral
[12] = Rifampicin-doxycycline interaction study; settings: plasma; for AUC(0-t): female, CD-1, mouse, in vivo, po, Doxycycline AUC[0-8] Mean (SD); for Doxycycline Cmin Mean (SD): daytime
Mtb ∆bioA = assay type: cell-based, Mycobacterium tuberculosis
bioA TetON-1 Mtb strain = system: bioA TetON-1 Mtb strain; parameters: species or system C57BL/6 mice; settings: in vivo
in vivo [13] = settings: female, CD-1, mouse, po, 10 mg/kg
[14] = system: [H][C@]12CS[C@@H](CCCCC(=O)NS(=O)(=O)NC[C@H]3O[C@@H](n4cnc5c(N)ncnc54)[C@H](O)[C@@H]3O)[C@@]1([H])NC(=O)N2; experiment: purified protein, by the assay type; settings: pH 7.5; 25.0 °C
[15] = different carbon sources at 0.1%
[16] = rifampicin single dose plus doxycycline in diet (2000 ppm, 7 days)
[17] = rifampicin steady state + doxycycline in diet

## CCCCC(CC)COS(=O)(=O)[O-].[Na+] (centres unmarked) [2-EHS, 2-ethylhexyl sulfate]
Rv3406 [1]
  Km: 8.8 ± 0.5 µM
  kcat: 0.32 ± 0.015 s⁻¹

## Nc1ncnc2c1ncn2[C@@H]1O[C@H](CNS(=O)(=O)NC(=O)CCCC[C@@H]2SC[C@@H]3NC(=O)N[C@@H]32)[C@@H](O)[C@H]1O [Bio-AMS, 5′-[N-(d-biotinoyl)sulfamoyl]amino-5′-deoxyadenosine]
Mtb [2]
  bactericidal concentration: 5 µM
  killing kinetics: kinetics similar to that of isoniazid
  viability of the culture: < 25 CFU/ml
[3]
  Mtb viability, non-replicating: no reduction in Mtb viability
[4]; 50 mg/kg IP, mouse 1
  24h Observation: Normal activity
  ½ h Observation: Active, grooming
[4]; 50 mg/kg IP, mouse 2
  24h Observation: Scruffy; some lethargic
  ½ h Observation: Active, grooming
[4]; 50 mg/kg IP, mouse 3
  24h Observation: Normal activity
  ½ h Observation: Active, grooming
[4]; 100 mg/kg IP, mouse 4
  24h Observation: Normal activity; grooming
  ½ h Observation: Normal activity
[4]; 100 mg/kg IP, mouse 5
  24h Observation: Dead
  ½ h Observation: Normal activity
[4]; 100 mg/kg IP, mouse 6
  24h Observation: Euthanized
  ½ h Observation: Normal activity
[4]; 250 mg/kg IP, mouse 7
  24h Observation: Dead
  ½ h Observation: Heavy breathing
[4]; 250 mg/kg IP, mouse 8
  24h Observation: Dead
  ½ h Observation: Scruffy, heavy breathing
[4]; 250 mg/kg IP, mouse 9
  24h Observation: Euthanized
  ½ h Observation: Normal activity
[4]; 500 mg/kg IP, mouse 10
  24h Observation: Near death; scruffy; pale color
  ½ h Observation: Scruffy, heavy breathing
[4]; 500 mg/kg IP, mouse 11
  24h Observation: Euthanized
  ½ h Observation: Scruffy, heavy breathing
[4]; 500 mg/kg IP, mouse 12
  24h Observation: Euthanized
  ½ h Observation: Scruffy, heavy breathing
[4]; IP, all doses
  animal weights during the 24 h period post-injection: unchanged
[4]; IP, doses of 50, 100, 250, 500 mg/kg tested
  dose tolerated up to 24 h post injection: 50 mg/kg
[4]; mice
  tolerability of the dose required for concentrations above the MIC for a substantial fraction of the dosing interval: not tolerated
Mtb H37Rv strain
  bactericidal activity when used individually: none of the compounds were bactericidal
Mtb [5]
  acid-fastness: most bacteria no longer stained as acid-fast
Mouse macrophages
  toxicity for mouse macrophages: did not detect toxicity
HepG2 cells
  mitochondrial toxicity: no signs of mitochondrial toxicity
HepG2 cells; human
  shift in IC50, glucose medium compared to galactose medium: 1.05 fold
Rv3406 [6]
  KM value relative to 2-EHS (higher): 48 fold
  kcat value relative to 2-EHS (lower): ~1300 fold
[7]; CD-1, mouse, 25 mg/kg
  F, bioavailability relative to IV exposure: 241%
[7]; mouse
  elimination in mice: rapidly eliminated
[7]; mouse, ip
  exposure: good exposure
[7]; mouse, po
  exposure: low
Mtb H37Ra
  growth of Mtb H37Ra (CFU): prevented growth
In vivo [8]; 25 mg/kg
  bioavailability: 2%
In vivo [8]; ip, 25 mg/kg
  AUC(0-t): 31.8 µM·h
  Cmax: 61.1 µM
In vivo [8]; iv, 5 mg/kg
  AUC(0-t): 2.5 µM·h
  Cmax: 8.72 µM
In vivo [8]; po, 25 mg/kg
  AUC(0-t): 0.26 µM·h
  Cmax: 0.11 µM
Mtb [9]; [15]
  impact of primary carbon source on MIC: little impact
  impact of primary carbon source on minimal bactericidal concentration: little impact
Mtb [9]; with versus without biotin
  increase of MIC by addition of biotin to the growth medium: fourfold
Mtb in mouse macrophages
  growth of Mtb in infected mouse macrophages: inhibited growth of Mtb in a concentration-dependent manner

## C[C@H]1c2cccc(O)c2C(=O)C2=C(O)[C@]3(O)C(=O)C(C(N)=O)=C(O)[C@@H](N(C)C)[C@@H]3[C@@H](O)[C@@H]21 [doxycycline]
[10]; animal 1069, 200 ppm in chow, 44 lesions
  Average lesion/plasma ratio (SD): 3.9 (2.6)
[10]; animal 1071, 400 ppm in chow, 19 lesions
  Average lesion/plasma ratio (SD): 5.4 (2.5)
In vivo [11]; 200 ppm
  Kp at 7 days: 6.1
In vivo [11]; 400 ppm
  Kp at 7 days: 3.7
[12]; caused by seven daily doses of rifampicin, 8-hour period, P < 0.05
  decrease in exposure: ~ 30%
[12]; [16]
  AUC(0-t): 4780 ng·h/mL
  Doxycycline Cmin Mean (SD): 0.36 (0.09) g/mL
[12]; [17]
  AUC(0-t): 3360 ng·h/mL
  Doxycycline Cmin Mean (SD): 0.26 (0.02) g/mL

## CC[C@@H](CO)NCCN[C@@H](CC)CO [ethambutol]
Mtb H37Rv strain
  change of MIC by sublethal dose of Bio-AMS: reduced the MIC
  bactericidal activity when used individually: none of the compounds were bactericidal
Mtb H37Rv strain; ethambutol 12.5 µM combined with Bio-AMS 1 µM
  Mtb inoculum killed: > 99.9%
Mtb ∆bioA
  change of MIC with decreasing concentrations of biotin: unchanged

## NNC(=O)c1ccncc1 [isoniazid]
Mtb H37Rv strain
  change of MIC by sublethal dose of Bio-AMS: unchanged

## CO[C@H]1/C=C/O[C@@]2(C)Oc3c(C)c(O)c4c(O)c(c(/C=N/N5CCN(C)CC5)c(O)c4c3C2=O)NC(=O)/C(C)=C\C=C\[C@H](C)[C@H](O)[C@@H](C)[C@@H](O)[C@@H](C)[C@H](OC(C)=O)[C@@H]1C [rifampicin]
Mtb H37Rv strain
  change of MIC by sublethal dose of Bio-AMS: reduced the MIC
  bactericidal activity when used individually: none of the compounds were bactericidal
Mtb H37Rv strain; rifampicin 6.5 nM combined with Bio-AMS 1 µM
  Mtb inoculum killed: more than 99.7%
Mtb ∆bioA
  amount accumulated in Mtb ∆bioA compared to wild-type: increased amounts of rifampicin
  change of MIC with decreasing concentrations of biotin: decreased the MIC
bioA TetON-1 Mtb strain
  killing of Mtb bioA TetON-1 in mouse lungs: more than 200 fold
bioA TetON-1 Mtb strain; mouse
  CFU from lungs, BioA expression reduced (no doxycycline) compared to constitutive: fewer CFU
In vivo [13]; Rifampicin AUC[0-8] Mean (SD)
  AUC(0-t): 30700 ng·h/mL
In vivo [13]; Rifampicin Cmax Mean (SD)
  Cmax: 5210 ng/mL
[12]
  effect of co-administration of doxycycline on exposure: not affected
[12]; [17]
  Rifampicin Cmax Mean (SD): 5.49 (2.14) g/mL

## O=C(O)CCC(=O)C(=O)O [α-KG, alpha-ketoglutarate]
Rv3406 [1]
  Km: 9.4 ± 1.2 µM
  kcat: 0.363 ± 0.0167 s⁻¹

## Rv3406 (Mycobacterium tuberculosis H37Rv)
[14]
  Km: 424 ± 136 µM
  kcat: 0.00025 ± 1.7e-05 s⁻¹
  kcat/Km: 0.583 ± 0.12 M⁻¹ s⁻¹
